# Measured values reported in US8143212B2 (Vicuron Pharmaceuticals Inc., priority 2002, dated 2012).
# “And” between values parts separate entries of the source, which are not always exact repeats. Equal entries are not always repeated. Where two headings read alike, the source gives them in different places.
# Columns and labels:
# P aeruginosas = assay: MIC, microbiological activity (Table 3); format: cell-based; settings: L 4 P aeruginosas ATCC10145
# S epidermidis = assay: MIC, microbiological activity (Table 3); format: cell-based; settings: L 147 S epidermidis
# Staph. aureus = assay: ED50 against Staph. aureus murine septicaemias (Table 2); format: in vivo
# C albicans = assay: MIC, microbiological activity (Table 3); format: cell-based; settings: L 145 C albicans SKF2270
# P vulgaris = assay: MIC, microbiological activity (Table 3); format: cell-based; settings: L 79 P vulgaris
# E. faecium Van-A = assay: MIC, microbiological activity (Table 3); format: cell-based; settings: L 1666 E. faecium Van-A
# S pyogenes = assay: MIC, microbiological activity (Table 3); format: cell-based; settings: L 49 S pyogenes C203
# E faecalis = assay: MIC, microbiological activity (Table 3); format: cell-based
# S pneumoniae = assay: MIC, microbiological activity (Table 3); format: cell-based; settings: L 44 S pneumoniae UC41
# S haemolyticus = assay: MIC, microbiological activity (Table 3); format: cell-based; settings: L 602 S haemolyticus clin. isolate
# E coli = assay: MIC, microbiological activity (Table 3); format: cell-based; settings: G 16440 E coli iperperm
# B subtilis = assay: MIC, microbiological activity (Table 3); format: cell-based; settings: L 102 B subtilis ATCC
# S aureus = assay: MIC, microbiological activity (Tables 2, 3); format: cell-based
# [1] = test system: N,N′-diacetyl-Lys-D-Ala-D-Ala; assay: Isothermal titration calorimetry of tri-peptide binding, with and without HSA (Table 39); settings: for Kd: read-out: Kdiss
# Procedure: Antibiotics and peptides were dissolved in aqueous buffer (20 mM Na phosphate, 150 mM NaCl, pH 7.4) containing HSA, with gentle stirring immediately before each experiment. Peptide concentrations were determined by weight. […] HSA concentrations were determined by UV absorbance (HSA, ε280=37,700; A280^1%=5.44). Spectra were recorded at room temperature in 1 cm pathlength quartz cuvettes using Shimadzu UV-160A or UV-1601 spectrophotometers, with samples diluted quantitatively with buffer if necessary to give absorbance in the 0.1-1 A range.
# Isothermal titration calorimetry was performed using a Microcal VP-ITC instrument at 25° C. and 37° C. using standard operating procedures. […] Samples were degassed gently prior to loading to prevent bubble formation in the calorimeter cell. […] Control experiments involved injection of ligand into buffer under identical conditions to determine heats of peptide dilution, and these values were used for correction of raw binding data prior to analysis.
# CR-BSI trial: safety = settings: in vivo
# Procedure: Safety was evaluated by the collection and analysis of data on adverse events (AEs), clinical laboratory tests, physical examinations, vital signs, and ECGs.
# gram positive bacteria [2] = settings: NCCLS M100 S-12, cited from earlier work
# gram positive bacteria [3] = assay: MIC by broth microdilution (NCCLS), with or without 30% bovine serum (Table 42); format: cell-based
# Procedure: (§1) Before dissolution, each sample was analyzed by HPLC and quantified.
# (§2) The microorganisms used were reference strains obtained from the American Type Culture Collection (ATCC) (Rockville, Md.), SmithKline and French Laboratories (SKF), and the Upjohn Company (UC) (Kalamazoo, Mich.).
# (§3) MICs were determined by the broth microdilution methodology following the standard NCCLS procedure (NCCLS Document M7-A6, Vol. 23, No. 2, “Methods for dilution antimicrobial susceptibility tests for bacteria that grow aerobically.” Approved Guideline. January 2003, which can be herein incorporated by reference in its entirety), with or without 30% adult bovine serum (BS) (PAA Laboratories GMBH, Haidmannweg Pasching Austria), using bacterial innocula at approximately 5×10^5 CFU/ml. The media employed included cation-adjusted Müller Hinton broth (Difco Laboratories, Detroit, Mich.) that was used that was adjusted with CaCl2 and MgCl2 to a final concentration of 20 mg/L and 10 mg/L, respectively. Tests were read following 20-24 hours of incubation at 35° C.
# gram-negative bacteria = assay: MIC by broth microdilution (NCCLS) (Table 42); format: cell-based
# Procedure: as §1, §2, §3
# [4] = test system: catheter-related blood stream infection (CR-BSI) due to gram-positive bacterial pathogens; assay: CR-BSI trial: efficacy (overall, clinical, microbiological response); format: in vivo, human; settings: microbiological ITT population at TOC; dalbavancin 1000 mg Day 1 + 500 mg Day 8 IV; vancomycin 1000 mg IV every 12 hours
# Procedure: Patients with CR-BSI due to suspected or known Gram-positive pathogen(s) who met the inclusion/exclusion criteria were randomized to one of two treatment arms in this open-label, comparative, multi-center study. Dalbavancin was administered once weekly in weekly dalbavancin and comparator (vancomycin) was administered daily in vancomycin. Catheter removal was required for patients with Staphylococcus aureus infection; catheter management was left to the Investigator's discretion for patients with coagulase-negative staphylococci (CoNS) infection. Efficacy was clinically based on the improvement or resolution of clinical signs and symptoms of CR-BSI such that no additional antibacterials were warranted, and microbiologically on the eradication or presence of the baseline or other pathogens.
# The treatment lasted for 14 days for patients with S. aureus infection, and 7 to 14 days for all other pathogens. […] Vancomycin was administered intravenously with a 1000 mg dose every 12 hours (or dose-adjusted based on drug levels).
# Efficacy was evaluated based on clinical and microbiological responses.
# [5] = test system: Candida albicans SKF 2270; assay: MIC by broth microdilution (NCCLS) (Tables 42, 44); format: cell-based
# [6] = test system: Escherichia coli, Proteus vulgaris, Pseudomonas aeruginosas; assay: MIC by broth microdilution (NCCLS) of IsoB0 and reference compounds (Table 44), non-gram-positive bacterial strains; format: cell-based
# Procedure: (§4) MICs were determined by the broth microdilution methodology following the standard NCCLS procedure, with or without 30% bovine serum, using bacterial inocula of approximately 5×10^5 CFU/mL. Tests were read after 20-24 h incubation at 35° C.
# [7] = test system: panel of gram-positive bacteria; assay: MIC by broth microdilution (NCCLS) of IsoB0 and reference compounds (Table 44); format: cell-based
# Procedure: Müller Hinton broth (Difco Laboratories, Detroit, Mich., USA) adjusted with CaCl2 and MgCl2 to a final concentrations of 20 mg/L and 10 mg/L respectively.
# The microorganisms used are reference standard strains from the American Type Culture Collection (ATCC, Rockville, USA), Smith Kline and French Laboratories (SKF) and the Upjohn Company (UC, Kalamazoo, Mich., USA).
# as §4
# [8] = Enterococcus faecalis ATCC 7080
# [9] = Enterococcus faecalis, ATCC29212
# [10] = Staphylococcus aureus, ATCC19636
# [11] = Staphylococcus aureus, ATCC29213
# [12] = Staphylococcus epidermidis, ATCC12228
structure (smiles),measurement,setting,value
CN[C@H]1C(=O)N[C@@H]2Cc3ccc(cc3)Oc3cc4cc(c3O)Oc3ccc(cc3Cl)[C@@H](O)[C@@H]3NC(=O)[C@H](NC(=O)[C@@H]4NC(=O)[C@@H](NC2=O)c2cc(cc(O)c2Cl)Oc2cc1ccc2O)c1ccc(O)c(c1)-c1c(O[C@H]2O[C@H](CO)[C@@H](O)[C@H](O)[C@@H]2O)cc(O)cc1[C@@H](C(=O)NCCCN(C)C)NC3=O [MAG],MIC,P aeruginosas,>32->32->32 μg/ml
same,MIC,S epidermidis,0.25 µg/mL and 0.13 µg/mL
same,ED50,"Staph. aureus; MRSA Staph. aureus 3817, treatment once within 10 min from infection by sc route",1.6 mg/kg
same,ED50,"Staph. aureus; MSSA Staph. aureus Smith 819, treatment once within 10 min from infection by sc route",0.3 mg/kg
same,MIC,C albicans,>32->32->32 μg/ml
same,MIC,P vulgaris,>32->32->32 μg/ml
same,MIC,E. faecium Van-A,>32->32->32 μg/ml
same,MIC,S pyogenes,0.5 µg/mL and 0.25 µg/mL
same,MIC,E faecalis; L 149 E faecalis,0.25 µg/mL and 0.5 µg/mL
same,MIC,E faecalis; L 562 E faecalis clin. isolate,32->32->32 μg/ml
same,MIC,S pneumoniae,1 µg/mL and 0.5 µg/mL
same,MIC,S haemolyticus,>32-32 μg/ml
same,MIC,E coli,8 µg/mL and 16 µg/mL
same,MIC,B subtilis,0.13-0.13 μg/ml
same,MIC,S aureus; 3797 S aureus clin. Isolate GISA,0.5-0.5 μg/ml
same,MIC,S aureus; 3817 S aureus clin. Isolate,0.5 µg/mL
same,MIC,S aureus; L 613 S aureus clin. isolate,1 µg/mL and 0.5 µg/mL
same,MIC,S aureus; L 819 S aureus Smith,0.5 µg/mL and 0.25 µg/mL
same,MIC,S aureus; L 819 S aureus Smith 50% serum,1-1-1 μg/ml
same,MIC,S aureus; MRSA Staph. aureus 3817,0.5 µg/mL
same,MIC,S aureus; MSSA Staph. aureus Smith 819,0.5 µg/mL
CN[C@H](CC(C)C)C(=O)N[C@H]1C(=O)N[C@@H](CC(N)=O)C(=O)N[C@H]2C(=O)N[C@H]3C(=O)N[C@H](C(=O)N[C@H](C(=O)O)c4cc(O)cc(O)c4-c4cc3ccc4O)[C@H](O)c3ccc(c(Cl)c3)Oc3cc2cc(c3O[C@@H]2O[C@H](CO)[C@@H](O)[C@H](O)[C@H]2O[C@H]2C[C@](C)(N)[C@H](O)[C@H](C)O2)Oc2ccc(cc2Cl)[C@H]1O [Vancomycin],Kass,"[1]; T 10 ° C., [HSA] 0 μM",690000 M⁻¹
same,Kass,"[1]; T 25 ° C., [HSA] 0 μM",340000 M⁻¹ and 360000 M⁻¹
same,Kass,"[1]; T 25 ° C., with HSA 513 μM",290000 M⁻¹
same,binding to dipeptide (D-Ala-D-Ala) or to Lys-D-Ala-D-Lactate,[1]; absence of serum proteins,no evidence of binding
same,Kd,"[1]; T 10 ° C., [HSA] 0 μM",1450 nM
same,Kd,"[1]; T 25 ° C., [HSA] 0 μM",2940 nM and 2780 nM
same,Kd,"[1]; T 25 ° C., with HSA 513 μM",3450 nM
same,patients with AEs that led to discontinuation of study drug,"CR-BSI trial: safety; human, intravenous",8.8%
same,SAE considered to be related to study drug,CR-BSI trial: safety,one SAE
same,Quality control range of MICs for reference strains,gram positive bacteria [2]; E. faecalis ATCC29212 ref. strain,^2VA 1-4 mg/L
same,Quality control range of MICs for reference strains,gram positive bacteria [2]; S. aureus ATCC 29213 ref. strain,^1VA 0.5-2 mg/L
same,ED50,"Staph. aureus; Staphylococcus aureus, MRSA, sc, 10 min",1 mg/kg
same,ED50,"Staph. aureus; Staphylococcus aureus, MSSA, sc, 10 min",1.7 mg/kg
same,MIC,gram positive bacteria [3],1 µg/mL
same,MIC,gram positive bacteria [3]; Bacillus subtilis ATCC 6633,≤ 0.125 µg/mL
same,MIC,gram positive bacteria [3]; [8],1 µg/mL
same,MIC,gram positive bacteria [3]; [9],2 µg/mL
same,MIC,gram positive bacteria [3]; [10],1 µg/mL
same,MIC,gram positive bacteria [3]; [11],2 µg/mL
same,MIC,gram positive bacteria [3]; [12],2 µg/mL
same,MIC,"gram positive bacteria [3]; Streptococcus pneumoniae, UC41",0.5 µg/mL
same,MIC,gram-negative bacteria,> 128 µg/mL
same,MIC,gram-negative bacteria; Escherichia coli,> 128 µg/mL
same,MIC,"gram-negative bacteria; Escherichia coli, ATCC25922",> 128 µg/mL
same,MIC,gram-negative bacteria; Proteus vulgaris ATCC 881,> 128 µg/mL
same,overall response success rate,[4],50.0%
same,MIC,[5]; Candida albicans SKF2270 (Table 44),>128 mg/L
same,MIC,"[5]; Candida albicans, SKF2270",> 128 mg/L
same,MIC,[6],> 128 µg/mL
same,MIC,[6]; Escherichia coli,> 128 µg/mL
same,MIC,"[6]; Escherichia coli, ATCC25922",> 128 µg/mL
same,MIC,[6]; Proteus vulgaris ATCC 881,> 128 µg/mL
same,MIC,"S aureus; Staphylococcus aureus, MRSA Staph. aureus 3817, read-out: MIC",0.5 µg/mL
same,MIC,"S aureus; Staphylococcus aureus, MSSA Staph. aureus Smith 819, read-out: MIC",0.5 µg/mL
same,MIC,[7]; Bacillus subtilis ATCC 6633,≤ 0.125 µg/mL
same,MIC,[7]; [8],1 µg/mL
same,MIC,[7]; [9],2 µg/mL
same,MIC,[7]; [10],1 µg/mL
same,MIC,[7]; [11],2 µg/mL
same,MIC,[7]; [12],2 µg/mL
same,MIC,"[7]; Streptococcus pneumoniae, UC41",0.5 µg/mL
same,MIC,[7]; Streptococcus pyogenes,1 µg/mL
